Test results: article PMC10138554, “Insights into the Microbicidal, Antibiofilm, Antioxidant and Toxicity Profile of New O-Aryl-Carbamoyl-Oxymino-Fluorene Derivatives” (International Journal of Molecular Sciences, 2023)
≈ marks a conversion by molar mass, not a printed value.

Key:
[1] = In vitro cytotoxicity assay, IncuCyte S3 live-cell analysis; format: cell-based; settings: human, 72-h period
Procedure: The cytotoxicity of the investigated compounds was tested using the IncuCyte Basic Analysiskit, allowing to calculate the IC50, against three tumoral cell lines, i.e., HeLa (cervical cancer cells), HT29 (colon adenocarcinoma) and MG63 (osteosarcoma). The selected metric of the concentration-response module was set on phase and confluence (%).
In our experiments, we used colorectal adenocarcinoma HT29 (ATCC HTB-38), cervical adenocarcinoma cells HeLa (ATCC CRM-CCL2), and osteosarcoma MG63 (ATCC CRL-1427). The cells were maintained in Dulbeco’s Modified Medium (DMEM): F12 (Thermo Fisher Scientific, Waltham, MA, USA) supplemented with 10% fetal bovine serum (FBS, Thermo Fisher Scientific, Waltham, MA, USA). For the in vitro evaluation of their cytotoxicity, the new derivatives were solubilized in DMSO at a concentration of 10 mg/mL and filtered with 0.22 µm Millex-GV Filter (Merck, Darmstadt, Germany). For cytotoxicity kinetics, the IncuCyte® S3 Live-Cell Analysis System (Sartorius, AG, Goettingen, Germany) was used. Briefly, 2 × 10^4 cells seeded in 96 well plates were treated with the new derivatives in a concentration ranging between 500 μg/mL and 3.9 μg/mL. The plates were placed in the IncuCyte® S3 Live-Cell Analysis System, and five images per well were taken every six h over a 72-h period and then processed, according to kit recommendations.

C. albicans ATCC 90029 [2] = experiment: MBC assay, plating on solid medium after MIC reading; format: cell-based; settings: Candida albicans, ATCC90029, read-out: minimum bactericidal concentration (MBC)
Procedure: (§1) The inhibitory activity of the obtained compounds has been assessed on five microbial strains, respectively: E. coli ATCC 25922, P. aeruginosa ATCC 27853, S. aureus ATCC 25923, E. faecalis ATCC 29212 and C. albicans ATCC 90029, in a planktonic and adherent growth state.
(§2) The MB assay was performed after reading the MIC values.

E. faecalis ATCC 29212 [3] = experiment: as above; format: cell-based; settings: Enterococcus faecalis, ATCC29212, read-out: minimum bactericidal concentration (MBC)
Procedure: as §1, §2

S. aureus ATCC 25923 [4] = experiment: as above; format: cell-based; settings: Staphylococcus aureus, ATCC25923, read-out: minimum bactericidal concentration (MBC)
Procedure: as §1, §2

P. aeruginosa ATCC 27853 = experiment: as above; format: cell-based; settings: Pseudomonas aeruginosa, ATCC27853, read-out: minimum bactericidal concentration (MBC)
Procedure: as §1, §2

E. coli ATCC 25922 [5] = experiment: as above; format: cell-based; settings: Escherichia coli, ATCC25922, read-out: minimum bactericidal concentration (MBC)
Procedure: as §1, §2

S. aureus ATCC 25923 [6] = experiment: Anti-biofilm activity assay, purple violet microtiter method; format: cell-based, Staphylococcus aureus; settings: S. aureus ATCC 25923 biofilm
Procedure: as §1
(§3) The anti-biofilm activity assay was performed by the purple violet microtiter method, as previously described, allowing us to determine the minimal biofilm inhibitory concentration (MBEC). The same range of concentrations, as in the MIC assay, i.e., from 5 to 0.009 mg/mL has been tested.

E. faecalis ATCC 29212 [7] = experiment: Flow cytometry (FCM) membrane depolarization, DiBAC4(3); format: cell-based; settings: for staining index value (SI): E. faecalis ATCC 29212, DiBAC4, 18–24 h
Procedure: (§4) The investigation of potential mechanisms of antimicrobial action by flow cytometry (FCM) was performed on microbial cultures obtained after 18–24 h of microbial cell incubation in the presence of subinhibitory concentrations of the analyzed compounds. Thus, microbial suspensions with a density of approximately 10^6 CFU/mL were prepared in sterile saline phosphate buffer from exponentially growing microbial cultures, obtained on a solid culture medium. Subinhibitory concentrations of the compounds were prepared in Muller–Hinton liquid culture medium and inoculated with an equal amount of microbial suspension and incubated for 18–24 h at 37 °C.
(§5) Microbial suspensions inoculated in a liquid medium were used as growth control. After incubation, the DiBAC4 fluorochrome solution [bis-(1,3-dibutylbarbituric acid) trimethinoxonol] Invitrogen/Life Technologies, Carlsbad, was added (0.5 μg/mL).
(§6) Fluorescence intensity (FI) was measured with an Accuri C6 plus flow cytometer in the FITC fluorescence channel. Growth control was used to locate the microbial cell population for fluorescence measurements. DiBAC4 dye was used to detect changes in the microbial membrane potential. […] A twofold increased fluorescence intensity (median fluorescence intensity = MFI) was considered to correspond to the depolarized microbial cells. For each subinhibitory concentration, a coloring index (CI) was calculated which represents the ratio of fluorescence intensity (FI) of treated versus untreated cells.

P. aeruginosa ATCC 27892 = experiment: as above; format: cell-based, Pseudomonas aeruginosa; settings: subinhibitory concentration tested 2.5 mg/mL, DiBAC4, 18–24 h
Procedure: as §4, §5, §6

C. albicans ATCC 90029 [8] = experiment: as above; format: cell-based, Candida albicans; settings: subinhibitory concentration tested 2.5 mg/mL, DiBAC4, 18–24 h
Procedure: as §4, §5, §6

S. aureus ATCC 25923 [9] = experiment: as above; format: cell-based, Staphylococcus aureus; settings: for staining index value (SI): S. aureus ATCC 25923, DiBAC4, 18–24 h
Procedure: as §4, §5, §6

C. albicans ATCC 90029 [10] = experiment: Anti-biofilm activity assay, purple violet microtiter method; format: cell-based, Candida albicans; settings: C. albicans ATCC 90029 biofilm
Procedure: as §1, §3

[11] = test system: Artemia franciscana Kellog nauplii; experiment: Toxicity on the Artemia franciscana Kellog crustacean species (lethality of nauplii); format: in vivo; settings: tested concentrations 6.2–100 μg/mL (solubility limit), 24 h
Procedure: The oocysts (Great Salt Lake, USA) provided by S.K. Trading were grown on artificial seawater medium (Coral Marine, Grotech), dissolved in distilled water with a few minutes of sonication, at 30 g/L concentration. The test was carried out in a 24-well plate, using three replicates. Because of their low solubility, the compounds 1a–d were suspended in the culture medium using sodium alginate (0.045%) (also used a negative control), the testing being carried out at the solubility limit. The concentrations 100, 50, 25, 12.5 and 6.2 μg/mL used for each substance were obtained by successive dilutions starting from the initial suspension. Between 10 and 15 nauplii per well were collected and placed in contact with the test suspensions (1.5 mL/well). All nauplii, dead or alive, were counted and recorded within 24 h of being placed in contact with the tested suspensions. The non-linear modeling of the concentration-lethality relationship was achieved through a four-parameter logistics model (4PL), implemented in several robust variants for estimating parameters in the R package “dr4pl” [78].

E. coli ATCC 25922 [12] = experiment: Anti-biofilm activity assay, purple violet microtiter method; format: cell-based, Escherichia coli; settings: E. coli ATCC 25922 biofilm
Procedure: as §1, §3

[13] = HT29 cells (colorectal adenocarcinoma), HT29, phase confluence (%)
[14] = HeLa cells (cervical adenocarcinoma), phase confluence (%)
[15] = MG63 cells (osteosarcoma), MG63, phase confluence (%)
[16] = subinhibitory concentration tested 2.5 mg/mL
[17] = subinhibitory concentration tested 1.25 mg/mL

O=C(Nc1ccccc1)ON=C1c2ccccc2-c2ccccc21 [Compound 1a, 9-(phenylcarbamoyloxymino)fluoren]
IC50 at 72 h [1, 13]: 11 ± 0.75 µg/mL (≈ 0.035 mM)
IC50 at 72 h [1, 14]: 7.52 ± 1.39 µg/mL (≈ 0.0239 mM)
IC50 at 72 h [1, 15]: 31.5 µg/mL (≈ 0.1 mM)
MBC (C. albicans ATCC 90029 [2]): 5000 µg/mL (≈ 15.9 mM)
MBC (E. faecalis ATCC 29212 [3]): 5000 µg/mL (≈ 15.9 mM)
MBC (S. aureus ATCC 25923 [4]): 5000 µg/mL (≈ 15.9 mM)
MBC (P. aeruginosa ATCC 27853): 2500 µg/mL (≈ 7.95 mM)
MBC (E. coli ATCC 25922 [5]): 2500 µg/mL (≈ 7.95 mM)
minimum biofilm inhibitory concentration (MBIC) (S. aureus ATCC 25923 [6]): 5 mg/mL
staining index value (SI) (E. faecalis ATCC 29212 [7]; [16]): 2.21
staining index value (SI) (P. aeruginosa ATCC 27892): 6.68
staining index value (SI) (C. albicans ATCC 90029 [8]): 4.94
staining index value (SI) (S. aureus ATCC 25923 [9]; [16]): 3.5
minimum biofilm inhibitory concentration (MBIC) (C. albicans ATCC 90029 [10]): 0.312 mg/mL
toxicity (in words) [11]: not toxic
minimum biofilm inhibitory concentration (MBIC) (E. coli ATCC 25922 [12]): 0.625 mg/mL

Cc1cccc(NC(=O)ON=C2c3ccccc3-c3ccccc32)c1 [Compound 1b, 9-((3-methyl-phenyl)carbamoyloximino)fluoren]
IC50 at 72 h [1, 13]: 6.33 ± 3.02 µg/mL (≈ 0.0193 mM)
IC50 at 72 h [1, 14]: 8.5 ± 2.26 µg/mL (≈ 0.0259 mM)
IC50 at 72 h [1, 15]: 22 ± 2.48 µg/mL (≈ 0.067 mM)
MBC (C. albicans ATCC 90029 [2]): 10000 µg/mL (≈ 30.5 mM)
MBC (E. faecalis ATCC 29212 [3]): 10000 µg/mL (≈ 30.5 mM)
MBC (S. aureus ATCC 25923 [4]): 5000 µg/mL (≈ 15.2 mM)
MBC (P. aeruginosa ATCC 27853): 2500 µg/mL (≈ 7.61 mM)
MBC (E. coli ATCC 25922 [5]): 5000 µg/mL (≈ 15.2 mM)
minimum biofilm inhibitory concentration (MBIC) (S. aureus ATCC 25923 [6]): 2.5 mg/mL
staining index value (SI) (E. faecalis ATCC 29212 [7]; [16]): 3.99
staining index value (SI) (P. aeruginosa ATCC 27892): 6.5
staining index value (SI) (C. albicans ATCC 90029 [8]): 2.82
staining index value (SI) (S. aureus ATCC 25923 [9]; [16]): 8.17
minimum biofilm inhibitory concentration (MBIC) (C. albicans ATCC 90029 [10]): 0.078 mg/mL
toxicity (in words) [11]: not toxic
minimum biofilm inhibitory concentration (MBIC) (E. coli ATCC 25922 [12]): 0.078 mg/mL

O=C(Nc1cccc(Cl)c1)ON=C1c2ccccc2-c2ccccc21 [Compound 1c, 9-((3-chloro-phenyl)carbamoyloxymino)fluoren]
IC50 at 72 h [1, 13]: 10.8 ± 1.36 µg/mL (≈ 0.031 mM)
IC50 at 72 h [1, 14]: 8.9 ± 2.56 µg/mL (≈ 0.0255 mM)
IC50 at 72 h [1, 15]: 22.8 ± 0.78 µg/mL (≈ 0.0654 mM)
MBC (C. albicans ATCC 90029 [2]): 10000 µg/mL (≈ 28.7 mM)
MBC (E. faecalis ATCC 29212 [3]): 5000 µg/mL (≈ 14.3 mM)
MBC (S. aureus ATCC 25923 [4]): 5000 µg/mL (≈ 14.3 mM)
MBC (P. aeruginosa ATCC 27853): 2500 µg/mL (≈ 7.17 mM)
MBC (E. coli ATCC 25922 [5]): 5000 µg/mL (≈ 14.3 mM)
minimum biofilm inhibitory concentration (MBIC) (S. aureus ATCC 25923 [6]): 5 mg/mL
changes in the membrane potential (E. faecalis ATCC 29212 [7]; E. faecalis ATCC 29212, subinhibitory concentration): did not cause changes
staining index value (SI) (E. faecalis ATCC 29212 [7]; [17]): 0.32
staining index value (SI) (P. aeruginosa ATCC 27892): 2.38
changes in the membrane potential (S. aureus ATCC 25923 [9]; S. aureus ATCC 25923, subinhibitory concentration): did not cause changes
staining index value (SI) (S. aureus ATCC 25923 [9]; [16]): 0.19
minimum biofilm inhibitory concentration (MBIC) (C. albicans ATCC 90029 [10]): 0.312 mg/mL
toxicity (in words) [11]: not toxic
minimum biofilm inhibitory concentration (MBIC) (E. coli ATCC 25922 [12]): 1.25 mg/mL

O=C(Nc1ccc(Cl)c(Cl)c1)ON=C1c2ccccc2-c2ccccc21 [Compound 1d, 9-((3,4-dichloro-phenyl)carbamoyloxymino)fluoren]
IC50 at 72 h [1, 13]: 8.17 ± 2.98 µg/mL (≈ 0.0213 mM)
IC50 at 72 h [1, 14]: 7.59 ± 3.64 µg/mL (≈ 0.0198 mM)
IC50 at 72 h [1, 15]: 26.3 ± 0.92 µg/mL (≈ 0.0686 mM)
MBC (C. albicans ATCC 90029 [2]): 10000 µg/mL (≈ 26.1 mM)
MBC (E. faecalis ATCC 29212 [3]): 5000 µg/mL (≈ 13 mM)
MBC (S. aureus ATCC 25923 [4]): 312 µg/mL (≈ 0.814 mM)
MBC (P. aeruginosa ATCC 27853): 2500 µg/mL (≈ 6.52 mM)
MBC (E. coli ATCC 25922 [5]): 5000 µg/mL (≈ 13 mM)
minimum biofilm inhibitory concentration (MBIC) (S. aureus ATCC 25923 [6]): 0.019 mg/mL
staining index value (SI) (E. faecalis ATCC 29212 [7]; [17]): 44.54
staining index value (SI) (P. aeruginosa ATCC 27892): 20.45
staining index value (SI) (C. albicans ATCC 90029 [8]): 20.21
staining index value (SI) (S. aureus ATCC 25923 [9]; [17]): 4.2
minimum biofilm inhibitory concentration (MBIC) (C. albicans ATCC 90029 [10]): 0.312 mg/mL
toxicity (in words) [11]: moderate toxicity
minimum biofilm inhibitory concentration (MBIC) (E. coli ATCC 25922 [12]): 0.625 mg/mL
